Measurements from US20210139959A1, “MODIFIED NUCLEOTIDE TRIPHOSPHATES FOR MOLECULAR ELECTRONIC SENSORS” (priority 2016, published 2021).

Tested on: polymerase, e.g., E. coli Pol I
Details: DNA template A20-C3-A30-G (SEQ ID NO: 3), FIG. 9; T signals are increased current; interpretation of the data
Excerpt: In this example, 7-deaza-dGTP (see FIG. 14B) was used as a modified dGTP. The signals were obtained for the DNA template {GTCA}10-[sequence] (SEQ ID NO: 2), comprising the 7-deaza modified dGTP.
In this embodiment, the signal data are obtained for the DNA template {GTCA}10-[sequence] (SEQ ID NO: 2), when a modified dGTP is used (7-deaza dGTP of FIG. 14B).

`Nc1nc2c(ccn2[C@H]2C[C@H](O)[C@@H](COP(=O)(O)OP(=O)(O)OP(=O)(O)O)O2)c(=O)[nH]1` [7-deaza dGTP, 7-deaza-2′-deoxyguanosine-5′-triphosphate] was tested, and the “modified dGTP incorporation signal (current)” value was “reduction in current”.
